Laboratory results as given in patent publication US20090137664A1, “SAURURUS CERNUUS COMPOUNDS THAT INHIBIT CELLULAR RESPONSES TO HYPOXIA” (priority 2003, published 2009).

Key:
ACHN = experiment: NCI in vitro cell line screen (SRB), Renal Cancer ACHN; assay type: cell-based
Protocol: (§1) For exemplary purposes, an embodiment of the present invention was tested for activity with respect to certain cancer cell lines. The following Tables show results from in vitro 60-cell line antitumor testing from the US National Cancer Institute Developmental Therapeutics Program (NCI-DTP) on compound 2. The testing was in connection with the NCI's In Vitro Cell Line Screening Project (IVCLSP). Detailed information regarding the experiments and their interpretation is available from the NCI.

786-0 = experiment: NCI in vitro cell line screen (SRB), Renal Cancer 786-0; assay type: cell-based
Protocol: as §1

U251 = experiment: NCI in vitro cell line screen (SRB), CNS Cancer U251; assay type: cell-based
Protocol: as §1

[1] = molecular target: T1, recombinant VEGF protein standard (Homo sapiens, UniProt P15692); experiment: interference with the VEGF ELISA using VEGF standard
T1 construct: purchased R & D Systems
T1 sequence (P15692 27-191 isoform P15692-4): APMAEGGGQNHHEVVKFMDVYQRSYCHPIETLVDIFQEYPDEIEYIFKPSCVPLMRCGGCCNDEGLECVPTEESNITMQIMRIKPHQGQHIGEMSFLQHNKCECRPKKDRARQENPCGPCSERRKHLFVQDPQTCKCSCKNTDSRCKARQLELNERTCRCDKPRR
Protocol: The effects of compounds 1 and 2 on hypoxic induction of secreted VEGF protein are examined in T47D cells. Exponentially grown T47D cells are plated at the density of 30,000 cells/well into 96-well plates. Compound treatment and hypoxic exposure are the same as described. Following incubation, the concentration of secreted VEGF protein in the conditioned media is determined by ELISA (R & D Systems) and the data normalized by the number of viable cells. Results shown in FIG. 4 are averages from a representative experiment performed in quadruplicate, the bars represent standard error. An asterisk (*) indicates the level of significance (p<0.01) relative to the hypoxic control, two asterisks (**) (p<0.0001), and no asterisk indicates no statistical difference (ANOVA and Fisher's PLSD post hoc test).
As discussed earlier, one important HIF-1 target gene is VEGF, a key factor for tumor angiogenesis. Compounds that can inhibit both HIF-1 activation and the production of secreted VEGF protein represent potential efficacious chemotherapeutic agents that inhibit both tumor survival and hypoxia induced angiogenesis. […] Following incubation, the concentration of secreted VEGF protein in the conditioned media is determined by ELISA (R & D Systems) and the data normalized by the number of viable cells. […] The level of significance (p<0.01) is determined by ANOVA and Fisher's PLSD post hoc test. […]

NCI-H226 = experiment: NCI in vitro cell line screen (SRB), Non-Small Cell Lung Cancer NCI-H226; assay type: cell-based
Protocol: as §1

HOP-92 = experiment: NCI in vitro cell line screen (SRB), Non-Small Cell Lung Cancer HOP-92; assay type: cell-based
Protocol: as §1

NCI-H460 = experiment: NCI in vitro cell line screen (SRB), Non-Small Cell Lung Cancer NCI-H460; assay type: cell-based
Protocol: as §1

HIF-1 = experiment: pTK-HRE3-luc reporter assay, 1,10-phenanthroline-induced HIF-1 activation in T47D cells; assay type: cell-based; conditions: Homo sapiens, read-out: inhibition of HIF-1 activation by 1,10-phenanthroline, 100 nM
Text: Iron chelators and transition metals (such as cobalt and nickel) can activate HIF-1 and have been used as chemical hypoxia mimetics. […] The expression of the HIF-1α subunit quantitatively determines HIF-1 biological activity (activation of transcription).

HCT-116 = experiment: NCI in vitro cell line screen (SRB), Colon Cancer HCT-116; assay type: cell-based
Protocol: as §1

[2] = Homo sapiens, read-out: LC50 (the source's name)

COc1ccc([C@@H](O)[C@@H](C)Oc2ccc([C@H]3O[C@H](c4ccc(O[C@H](C)[C@H](O)c5ccc6c(c5)OCO6)c(OC)c4)[C@H](C)[C@H]3C)cc2OC)cc1OC [Compound 2, manassantin B] was tested, and the TGI (ACHN) was 5.02E−5 Molar, the GI50 (ACHN; Homo sapiens) was 1820 nM and the CC50 (ACHN; [2]) was > 100000 nM. The “Mean Optical Densities” value (ACHN; Log10 Concentration −4.0 Molar) was 0.297, the “Percent Growth” value (ACHN; Log10 Concentration −4.0 Molar) was −5% and the “Mean Optical Densities” value (ACHN; Log10 Concentration −5.0 Molar) was 0.351. For the same compound, the “Percent Growth” value (ACHN; Log10 Concentration −5.0 Molar) was 11%, the “Mean Optical Densities” value (ACHN; Log10 Concentration −6.0 Molar) was 0.554 and the “Percent Growth” value (ACHN; Log10 Concentration −6.0 Molar) was 64%. The “Mean Optical Densities” value (ACHN; Log10 Concentration −7.0 Molar) was 0.644, the “Percent Growth” value (ACHN; Log10 Concentration −7.0 Molar) was 88% and the “Mean Optical Densities” value (ACHN; Log10 Concentration −8.0 Molar) was 0.590. For the same compound, the “Percent Growth” value (ACHN; Log10 Concentration −8.0 Molar) was 73%, the TGI (786-0) was >1.00E−4 Molar and the GI50 (786-0; Homo sapiens) was 7740 nM. For the same compound, the CC50 (786-0; [2]) was > 100000 nM, the “Mean Optical Densities” value (786-0; Log10 Concentration −4.0 Molar) was 0.806 and the “Percent Growth” value (786-0; Log10 Concentration −4.0 Molar) was 38%. The “Mean Optical Densities” value (786-0; Log10 Concentration −5.0 Molar) was 0.888, the “Percent Growth” value (786-0; Log10 Concentration −5.0 Molar) was 46% and the “Mean Optical Densities” value (786-0; Log10 Concentration −6.0 Molar) was 1.309. The “Percent Growth” value (786-0; Log10 Concentration −6.0 Molar) was 84%, the “Mean Optical Densities” value (786-0; Log10 Concentration −7.0 Molar) was 1.361 and the “Percent Growth” value (786-0; Log10 Concentration −7.0 Molar) was 89%. The “Mean Optical Densities” value (786-0; Log10 Concentration −8.0 Molar) was 1.398, the “Percent Growth” value (786-0; Log10 Concentration −8.0 Molar) was 92% and the TGI (U251) was 7.27E−5 Molar. For the same compound, the GI50 (U251; Homo sapiens, U-251) was < 10 nM, the CC50 (U251; Homo sapiens, U-251, read-out: LC50 (the source's name)) was > 100000 nM and the “Mean Optical Densities” value (U251; Log10 Concentration −4.0 Molar) was 0.267. For the same compound, the “Percent Growth” value (U251; Log10 Concentration −4.0 Molar) was −2%, the “Mean Optical Densities” value (U251; Log10 Concentration −5.0 Molar) was 0.335 and the “Percent Growth” value (U251; Log10 Concentration −5.0 Molar) was 15%. For the same compound, the “Mean Optical Densities” value (U251; Log10 Concentration −6.0 Molar) was 0.418, the “Percent Growth” value (U251; Log10 Concentration −6.0 Molar) was 35% and the “Mean Optical Densities” value (U251; Log10 Concentration −7.0 Molar) was 0.444. The “Percent Growth” value (U251; Log10 Concentration −7.0 Molar) was 41%, the “Mean Optical Densities” value (U251; Log10 Concentration −8.0 Molar) was 0.443 and the “Percent Growth” value (U251; Log10 Concentration −8.0 Molar) was 41%. For the same compound, the “interference with the ELISA assay” value [1] was “neither compound interferes”, the TGI (NCI-H226) was 1.77E−5 Molar and the GI50 (NCI-H226; Homo sapiens) was 483 nM. For the same compound, the LC50 (concentration killing 50% of cells) (NCI-H226; Homo sapiens) was > 100000 nM, the “Mean Optical Densities” value (NCI-H226; Log10 Concentration −4.0 Molar) was 0.559 and the “Percent Growth” value (NCI-H226; Log10 Concentration −4.0 Molar) was −16%. For the same compound, the “Mean Optical Densities” value (NCI-H226; Log10 Concentration −5.0 Molar) was 0.678, the “Percent Growth” value (NCI-H226; Log10 Concentration −5.0 Molar) was 5% and the “Mean Optical Densities” value (NCI-H226; Log10 Concentration −6.0 Molar) was 0.765. For the same compound, the “Percent Growth” value (NCI-H226; Log10 Concentration −6.0 Molar) was 36%, the “Mean Optical Densities” value (NCI-H226; Log10 Concentration −7.0 Molar) was 0.885 and the “Percent Growth” value (NCI-H226; Log10 Concentration −7.0 Molar) was 79%. For the same compound, the “Mean Optical Densities” value (NCI-H226; Log10 Concentration −8.0 Molar) was 0.822, the “Percent Growth” value (NCI-H226; Log10 Concentration −8.0 Molar) was 57% and the TGI (HOP-92) was 2.45E−5 Molar. For the same compound, the GI50 (HOP-92; Homo sapiens) was 1980 nM, the LC50 (HOP-92; Homo sapiens) was > 100000 nM and the “Mean Optical Densities” value (HOP-92; Log10 Concentration −4.0 Molar) was 0.490. The “Percent Growth” value (HOP-92; Log10 Concentration −4.0 Molar) was −30%, the “Mean Optical Densities” value (HOP-92; Log10 Concentration −5.0 Molar) was 0.744 and the “Percent Growth” value (HOP-92; Log10 Concentration −5.0 Molar) was 19%. For the same compound, the “Mean Optical Densities” value (HOP-92; Log10 Concentration −6.0 Molar) was 0.846, the “Percent Growth” value (HOP-92; Log10 Concentration −6.0 Molar) was 63% and the “Mean Optical Densities” value (HOP-92; Log10 Concentration −7.0 Molar) was 0.947. For the same compound, the “Percent Growth” value (HOP-92; Log10 Concentration −7.0 Molar) was 107%, the “Mean Optical Densities” value (HOP-92; Log10 Concentration −8.0 Molar) was 0.971 and the “Percent Growth” value (HOP-92; Log10 Concentration −8.0 Molar) was 117%. For the same compound, the TGI (NCI-H460) was >1.00E−4 Molar, the GI50 (NCI-H460; Homo sapiens) was 2120 nM and the LC50 (concentration killing 50% of starting cells) (NCI-H460; Homo sapiens) was > 100000 nM. The “Mean Optical Densities” value (NCI-H460; Log10 Concentration −4.0 Molar) was 0.285, the “Percent Growth” value (NCI-H460; Log10 Concentration −4.0 Molar) was 11% and the “Mean Optical Densities” value (NCI-H460; Log10 Concentration −5.0 Molar) was 0.492. The “Percent Growth” value (NCI-H460; Log10 Concentration −5.0 Molar) was 28%, the “Mean Optical Densities” value (NCI-H460; Log10 Concentration −6.0 Molar) was 0.895 and the “Percent Growth” value (NCI-H460; Log10 Concentration −6.0 Molar) was 61%. For the same compound, the “Mean Optical Densities” value (NCI-H460; Log10 Concentration −7.0 Molar) was 1.030, the “Percent Growth” value (NCI-H460; Log10 Concentration −7.0 Molar) was 72% and the “Mean Optical Densities” value (NCI-H460; Log10 Concentration −8.0 Molar) was 1.011. The “Percent Growth” value (NCI-H460; Log10 Concentration −8.0 Molar) was 70%, the inhibition at 0.1 µM (HIF-1) was 44% and the TGI (HCT-116) was >1.00E−4 Molar. The GI50 (HCT-116; Homo sapiens) was 2250 nM, the CC50 (HCT-116; [2]) was > 100000 nM and the “Mean Optical Densities” value (HCT-116; Log10 Concentration −4.0 Molar) was 0.329. For the same compound, the “Percent Growth” value (HCT-116; Log10 Concentration −4.0 Molar) was 15%, the “Mean Optical Densities” value (HCT-116; Log10 Concentration −5.0 Molar) was 0.498 and the “Percent Growth” value (HCT-116; Log10 Concentration −5.0 Molar) was 32%. For the same compound, the “Mean Optical Densities” value (HCT-116; Log10 Concentration −6.0 Molar) was 0.770, the “Percent Growth” value (HCT-116; Log10 Concentration −6.0 Molar) was 60% and the “Mean Optical Densities” value (HCT-116; Log10 Concentration −7.0 Molar) was 0.867. The “Percent Growth” value (HCT-116; Log10 Concentration −7.0 Molar) was 70%, the “Mean Optical Densities” value (HCT-116; Log10 Concentration −8.0 Molar) was 0.978 and the “Percent Growth” value (HCT-116; Log10 Concentration −8.0 Molar) was 81%.
